Test results taken from patent publication US7744854B2, “Method for optimizing cancer therapy by monitoring maturation of tumor associated vasculature by selenium” (Health Research, Inc., priority 2006, dated 2010).
Entries after “also recorded” stand apart in the source; their conditions may differ.

What was measured:
[1] = Tumor drug uptake by HPLC in FaDu xenografts; type: in vivo
Experimental: FIGS. 6A and 6B show the effect of 14 days pre-treatment with MSC prior to drug administration on tumor drug uptake (2 hours post i.v.) as determined by HPLC in FaDu xenografts for CPT-11 and doxorubicin respectively. […] The drug concentration in the normal tissues studied such as liver, plasma.

[2] = system: endothelial cells in the angiogenic microvessels; test: CD31/Tunnel double staining of angiogenic microvessels; type: in vivo, mouse
Excerpt: (§1) Thus, selenium inhibits proliferation of endothelial cells.

FaDu xenografts [3] = test: Hoechst 33342 / DiOC7 fluorescent dye uptake, functional tumor vasculature; type: in vivo, mouse; conditions: post 14 days MSC treatment
Experimental: Initial studies on uptake of fluorescent dyes Hoechst 33342 (i.v at 15 mg/kg in sterile phosphate buffered saline) followed 20 minutes later with DiOC7 (i.v. at 1 mg/kg in dimethyl sulfoxide) in mice bearing A253 and FaDu xenografts are indicative of tumor vascular maturation by MSC. Uptake of both dyes is indicative of functional vasculature while uptake of only one dye is indicative of […] vasculature. […] Abnormal vasculature shut off when challenged with dyes similar to Hoechst 33342 while blood flow through ‘normalized’ vasculature is not affected.

[4] = system: Delta-like 4 ligand (DLL4); test: Western blot of FaDu xenografts: DLL4; type: in vivo; conditions: selenium for 14 days
Excerpt: (§2) MSC up-regulates Thrombospondin-1 (TSP-1) a potent inhibitor of angiogenesis and important controller of tumor growth and its receptor CD36 (FIG. 8A), HIF-1α expression (FIG. 8B) and relative intensity (FIG. 8C). To assess the effects of selenium on TVM, the expression of molecular markers associated with tumor hypoxia, drug resistance and increased proliferation, namely, hypoxia-inducible factor 1∝ (HIF-1∝), Cyclooxygenase-2 (Cox-2), inducible nitric oxide, propyl hydroxyl domain (PHD) and vascular endothelial growth factor (VEGF) were evaluated in xenograft tumors. Selenium was administered for 14 days. Western blot analysis was performed to determine the effect of MSC treatment on different antiangiogenic markers TSP-1, CD36, Delta-like 4 ligand (DLL4) and hypoxia inducible factor HIF-1α Data in FIG. 8A indicate that CD36 is up regulated in FaDu xenografts treated with MSC. Along with the CD36 MSC up regulates TSP-1, which is known to be involved in the inhibition of angiogenesis. Further, MSC down-regulates DLL4 in FaDu xenografts.

[5] = system: matrigel plug containing cultured FaDu tumor cells; test: Matrigel plug (s.c.) containing cultured FaDu tumor cells, microvessel count; type: in vivo; conditions: 0.2 mg/mouse/day, after 1 week, 10^6 cells s.c., p<0.05
Excerpt: as §1

FaDu tumors = test: CD31/α-SMA double immunohistochemical staining of FaDu tumors; type: in vivo, mouse; conditions: day 14 of MSC treatment
Excerpt: MSC treatment results in reduction of tumor vascular leakiness as reflected by the slope of the ΔR1 values in FaDu xenografts. This could be a result of tumor vascular maturation as determined by the double immunohistochemical staining for the pan endothelial cell adhesion molecule (PECAM; CD31) and α-SMA in control and MSC treated mice (Day 14 of MSC treatment).
This is in agreement with our estimates of MVD as MSC treatment does lead to a reduction in MVD. However, the decrease in permeability could be a result of the ‘maturation’ effect of MSC. To validate findings from the imaging studies, immunohistochemical staining for the pan endothelial cell adhesion molecule (PECAM; CD31) along with staining with alpha-smooth muscle actin was performed in control and MSC-treated mice (Day 14 after treatment).

tumor microvessels = test: Histopathological studies for direct antivascular effect; type: in vivo, mouse; conditions: histopathology
Excerpt: as §1

FaDu xenografts [6] = test: DCE-MRI (albumin-GdDTPA) of tumor vascular permeability and volume in FaDu xenografts; type: in vivo, mouse
Experimental: FaDu xenograft bearing mice were used. MSC was administered for 14 days. Mice were imaged using a 4.7-T/33-cm horizontal bore magnet (GE NMR Instruments, Fremont, Calif.) incorporating AVANCE digital electronics [Bruker Biospec, ParaVision 3.0.2 OS); Bruker Medical, Billerica, Mass.], a removable gradient coil insert (G060; Bruker Medical) generating a maximum field strength of 950 mT/m, and a custom-designed radiofrequency transreceiver coil. Animals were anesthetized before imaging with a ketamine/xylazine mixture (10:1) at a dose of […], secured in a mouse coil chamber, and positioned on a scanner. The animals were kept warm in the magnet using a circulating water bath maintained at 37 jC. […] T1 relaxation rates were determined using a saturation recovery, fast spin echo sequence with an effective echo time (TE) of 10 milliseconds, and a TR ranging from 360 to 6000 milliseconds [FOV=32×32 mm, slice thickness=1.0 mm, matrix size=128×96 pixels, number of excitations (NEX)=3]. […]
Image processing and analysis were carried out using commercially available software (ANALYZE PC, Version 5.0; Biomedical Imaging Resource, Mayo Foundation, Rochester, Minn.) (Matlab's curve-fitting toolbox, Matlab Version 7.0; Math Works, Inc., Natick, Mass.). […] Percent tumor enhancement (E) was then calculated from relative intensity (RI) […]

FaDu xenografts [7] = test: Intratumoral microvessel density (CD31 immunostaining) in FaDu xenografts; type: in vivo; conditions: 0.2 mg/mouse/day, after 2 weeks, p<0.05
Excerpt: Microvessels were counted based on endothelial cells immunostaining with CD31 Mab on paraffin sections, after zinc fixative (p<0.05 in each system).

VEGF = VEGF expression (WB) and secretion (ELISA) in FaDu tumor cells in vitro; type: cell-based
Excerpt: as §1

Thrombospondin-1 (TSP-1) = test: Western blot of FaDu xenografts: TSP-1; type: in vivo; conditions: selenium for 14 days
Excerpt: as §2

CD36 = test: Western blot of FaDu xenografts: CD36; type: in vivo; conditions: selenium for 14 days
Excerpt: as §2

HNSCC xenograft FaDu = test: Dose and schedule dependence of therapeutic synergy with irinotecan in FaDu xenograft; type: in vivo
Excerpt: A minimum 7 days pretreatment with MSC is required to achieve optimal therapeutic synergy with a representative anticancer drug—irinotecan. […] Daily pretreatment for 7-14 days was critical to achieve the selective effects of selenium. This reflects the time required for priming of tumor vasculature by MSC in order to see the therapeutic end results.

[8] = system: HNSCC xenografts FaDu and A253; test: Tumor vascular maturation index and mean vessel lumen area; type: in vivo; conditions: vs untreated control tumors
Excerpt: FIG. 5A summarizes effect of MSC treatment on tumor vascular maturation index (VMI) and on the mean tumor vessel lumen area (FIG. 5B) in HNSCC xenografts FaDu and A253. […] Treatment with MSC makes the arrangement less chaotic and more ‘normalized’ in arrangement.

HIF-1α = HIF-1α expression in hypoxic FaDu tumor cells in vitro; type: cell-based; conditions: 24 hr hypoxic conditions, preliminary results
Excerpt: To determine whether HIF-1α is a target for MSC, FaDu tumor cells were exposed in vitro for 24 hr to hypoxic conditions and analyzed for HIF-1α expression to FaDu cells. […] The data in FIG. 8C is graphic representation of the relative intensity of each marker.

[9] = 14 days MSC pre-treatment, 2 hours post i.v., vs monotherapy
[10] = combination treatment with SN-38

## C[Se]C[C@H](N)C(=O)O [MSC, methylselenocysteine]
[1]; [9]
  intratumoral drug concentration, CPT-11 (SN-38 per FIG. 6A): more than doubling
  intratumoral drug concentration, doxorubicin: more than doubling
[1]; liver, plasma, kidney, combination with MSC vs monotherapy
  drug concentration in normal tissues: did not show a significant increase
[2]
  apoptotic endothelial cell nuclei in angiogenic microvessels: did not show apoptotic endothelial cell nuclei
FaDu xenografts [3]
  vasculature with uptake of both dyes ('normalized' functional vasculature): approximately 80%
[4]
  DLL4 expression: down-regulates
[5]
  microvessel density in matrigel plug containing FaDu tumor cells: decreases
FaDu tumors
  pericyte recruitment / α-SMA staining of tumor vasculature: Increased pericyte recruitment; also recorded: increased staining of α-SMA
Tumor microvessels
  direct antivascular effect (microvessel necrosis, endothelial cell death, microthrombus formation): did not show any signs of other direct antivascular effect
FaDu xenografts [6]; 14 days MSC treatment
  tumor vascular volume: statistically significant decrease
FaDu xenografts [6]; 14 days MSC vs volume matched control
  tumor vascular permeability (leakiness; slope of ΔR1): reduction; also recorded: statistically significant decrease
FaDu xenografts [7]
  intratumoral microvessel density (MVD): decreases
VEGF; [10]
  VEGF expression (WB): down regulates
  VEGF secretion (ELISA): down regulates
VEGF; selenium alone
  VEGF secretion: decreased
Thrombospondin-1 (TSP-1)
  TSP-1 expression: up regulates
CD36
  CD36 expression: up regulated
HNSCC xenograft FaDu; daily MSC
  minimum pretreatment required for optimal therapeutic synergy with irinotecan: ≥ 7 days
HNSCC xenograft FaDu; with irinotecan
  therapeutic effect: dose and schedule dependent
[8]; p<0.0001
  mean tumor vessel lumen area: reduction
[8]; p<0.05
  tumor vascular maturation index (VMI): significant increase
HIF-1α
  HIF-1α expression: significant inhibition
